Results on 15 compounds are retold here after patent US11224601B1, “Compounds that inhibits MCL-1 protein” (priority 2017, dated 2022).

The test system of test [1] is OPM-2 human multiple myeloma cell line. The test is described as follows: Cell Viability Assay (OPM-2 10 FBS), CellTiter-Glo. The format is cell-based. Particulars: Homo sapiens, OPM-2, 16 h. In short, it runs like this: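 Compounds, serially diluted, were left on OPM-2 cells (3000 cells/well, 10% FBS RPMI 1640) for 16 h at 37° C. under 5% CO2.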
In general terms: In ATP-based viability assays light output follows the ATP content of the culture.

The test system of test [2] is OPM-2 Luc cells. The test is described as follows: Tumor Pharmacodynamics (PD) model. Type of test: in vivo. The conditions noted are these: dosed orally to female athymic nude mice inoculated with OPM-2 Luc cells; compared with Reference Compound 1. From the text: Tumor Pharmacodynamics (PD)
FIGS. 1-7 illustrate the PD results of the cited Examples. The Reference Compound 1, an internal Amgen MC1-1 inhibitor compound made by one of the general schemes outlined in U.S. Pat. No. 9,562,061, herein incorporated by reference, is (1S,3′R,6′R,7′S,8′E,12′R)-6-chloro-12′-ethyl-7′-methoxy-3,4-dihydro-2H,15′H-spiro[naphthalene-1,22′-[20]oxa[13]thia[1,14]diazatetracyclo[14.7.2.0˜3,6˜.0˜19,24˜]pentacosa[8,16,18,24]tetraen]-15′-one 13′,13′-dioxide

Test [3] deals with recombinant human Mcl-1 (Mcl-1/Bim interaction) (Homo sapiens (Human), UniProt Q07820). Nature of the test: biochemical. The format is binding. Particulars: cell free Mcl-1:Bim TR-FRET. Background: Time-resolved FRET reads energy transfer from a long-lived donor to a nearby acceptor.
recombinant human Mcl-1 (Mcl-1/Bim interaction), sequence (Q07820 171-327): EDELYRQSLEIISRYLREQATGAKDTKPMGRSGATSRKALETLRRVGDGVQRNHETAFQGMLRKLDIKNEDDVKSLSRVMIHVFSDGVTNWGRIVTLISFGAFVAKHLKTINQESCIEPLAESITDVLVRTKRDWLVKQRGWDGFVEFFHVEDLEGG
Description: Cell free Mcl-1:Bim Affinity Assay (Mcl-1 HTRF)
The inhibition of the Mcl-1/Bim interaction was measured using a time-resolved fluorescence resonance energy transfer (TR-FRET) assay. The recombinant human Mcl-1 (C-terminally 6×His tagged Mcl-1 containing residues 171-327) was generated at Amgen Inc (Thousand Oaks, Calif.). A biotinylated peptide derived from human Bim (residues 51-76) was purchased from CPC Scientific (San Jose, Calif.). The TR-FRET assay was conducted in a 384-well white OptiPlate™ (PerkinElmer, Waltham, Mass.) in a total volume of 40 μL. The reaction mixture contained 0.1 nM Mcl-1(171-327), 0.05 nM biotin-Bim(51-76), 0.05 nM LANCE® Eu-W1024 Anti-6×His (PerkinElmer), 0.072 nM Streptavidin-Xlent (Cisbio, Bedford, Mass.), and serially diluted test compounds in the binding buffer of 20 mM Hepes, pH 7.5, 150 mM NaCl, 0.016 mM Brij® 35, and 1 mM dithiothreitol. Test compounds were pre-incubated with Mcl-1(171-327) and biotin-Bim (51-76) for 60 min before addition of the detection mixture (LANCE® Eu-W1024 Anti-6×His and Streptavidin-Xlent). The reaction plates were further incubated overnight and then were read on an Envision® multimode reader (PerkinElmer). Fluorescence signals were measured at 620 nm (40-nm bandwidth) and 665 nm (7.5-nm bandwidth) with a 60 μs delay after excitation at 320 nm (75-nm bandwidth). The signal ratio at 665/620 nm corresponded to the Mcl-1/Bim interaction and was used in all data analyses. The IC50 values of test compounds were determined from duplicate data by analyzing competition curves using a four-parameter sigmoidal model in GraphPad Prism (GraphPad Software, San Diego, Calif.) or in Genedata Screener® (Genedata, Basel, Switzerland).
[4] abbreviates: read-out: OPM-2 10% FBS IC50 IP (μM), OPM-2 cells, 10% FBS, 16 h, CellTiter-Glo.
The mark [5] stands for this setting: read-out: OPM-2 10% FBS IC50 IP, OPM-2 cells, 10% FBS, 16 h, CellTiter-Glo.

Where two headings read alike, the source gives them in different places.

Regarding `CO[C@]1(CN2CCN3CCOC[C@@H]3C2)/C=C/C[C@H](C)[C@@H](C)S(=O)(=O)NC(=O)c2ccc3c(c2)N(C[C@@H]2CC[C@H]21)C[C@@]1(CCCc2cc(Cl)ccc21)CO3` [Example 4, (1S,3′R,6′R,7′R,8′E,11′S,12′R)-6-chloro-7′-((9aS)-hexahydropyrazino[2,1-c][1,4]oxazin-8(1H)-ylmethyl)-7′-methoxy-11′,12′-dimethyl-3,4-dihydro-2H,15′H-spiro[naphthalene-1,22′-[20]oxa[13]thia[1,14]diazatetracyclo[14.7.2.0˜3,6˜.0˜19,24˜]pentacosa[8,16,18,24]tetraen]-15′-one 13′,13′-dioxide], in test [1] (setting [4]), the IC50 (usually the concentration that inhibits the measured activity by half) amounted to 0.094 µM. For the same compound, the “in vivo efficacy in a tumor PD model relative to Reference Compound 1” value in test [2] is reported as “superior in vivo efficacy”.
For `CCO[C@]1(CN2CCN3CCOC[C@@H]3C2)/C=C/C[C@H](C)[C@@H](C)S(=O)(=O)NC(=O)c2ccc3c(c2)N(C[C@@H]2CC[C@H]21)C[C@@]1(CCCc2cc(Cl)ccc21)CO3` [Example 1, (1S,3′R,6′R,7′R,8′E,11′S,12′R)-6-chloro-7′-ethoxy-7′-((9aS)-hexahydropyrazino[2,1-c][1,4]oxazin-8(1H)-ylmethyl)-11′,12′-dimethyl-3,4-dihydro-2H,15′H-spiro[naphthalene-1,22′-[20]oxa[13]thia[1,14]diazatetracyclo[14.7.2.0˜3,6˜.0˜19,24˜]pentacosa[8,16,18,24]tetraen]-15′-one 13′,13′-dioxide], the IC50 in test [1] (setting [4]) amounted to 0.085 µM. Also, the “in vivo efficacy in a tumor PD model relative to Reference Compound 1” value in test [2] is on record as “superior in vivo efficacy”.
As for `C[C@@H]1[C@@H](C)C/C=C/[C@](O)(CN2CCN3CCOC[C@@H]3C2)[C@@H]2CC[C@H]2CN2C[C@@]3(CCCc4cc(Cl)ccc43)COc3ccc(cc32)C(=O)NS1(=O)=O` [Example 213, (1S,3′R,6′R,7′R,8′E,11′S,12′R)-6-chloro-7′-((9aS)-hexahydropyrazino[2,1-c][1,4]oxazin-8(1H)-ylmethyl)-7′-hydroxy-11′,12′-dimethyl-3,4-dihydro-2H,15′H-spiro[naphthalene-1,22′-[20]oxa[13]thia[1,14]diazatetracyclo[14.7.2.0˜3,6˜.0˜19,24˜]pentacosa[8,16,18,24]tetraen]-15′-one 13′,13′-dioxide], the values for the 50% inhibitory concentration (IC50) in test [3] (read-out: Mcl-1 HTRF IC50) and in test [1] (setting [4]) were 0.239 nM and 0.4 µM, respectively.
For `CO[C@]1(C(=O)N(C)C)/C=C/C[C@H](C)[C@@H](C)S(=O)(=O)NC(=O)c2ccc3c(c2)N(C[C@@H]2CC[C@H]21)C[C@@]1(CCCc2cc(Cl)ccc21)CO3` [Example 177, (1S,3′R,6′R,7′R,8′E,11′S,12′R)-6-chloro-7′-methoxy-N,N,11′,12′-tetramethyl-15′-oxo-3,4-dihydro-2H-spiro[naphthalene-1,22′-[20]oxa[13]thia[1,14]diazatetracyclo[14.7.2.0˜3,6˜.0˜19,24˜]pentacosa[8,16,18,24]tetraene]-7′-carboxamide 13′,13′-dioxide] the same measures were 0.153 nM and 0.615 µM.
Take `CO[C@@]1(C#CCCc2ccncn2)/C=C/C[C@H](C)[C@@H](C)S(=O)(=O)NC(=O)c2ccc3c(c2)N(C[C@@H]2CC[C@H]21)C[C@@]1(CCCc2cc(Cl)ccc21)CO3` [Example 100519, (1S,3′R,6′R,7′S,8′E,11′S,12′R)-6-chloro-7′-methoxy-11′,12′-dimethyl-7′-(4-(4-pyrimidinyl)-1-butyn-1-yl)-3,4-dihydro-2H,15′H-spiro[naphthalene-1,22′-[20]oxa[13]thia[1,14]diazatetracyclo [14.7.2.0~3,6~.0~19,24~]pentacosa[8,16,18,24]tetraen]-15′-one 13′,13′-dioxide]: the 50% inhibitory concentration (IC50) in test [3] (read-out: Mel-1 HTRF IC50) is 0.175 nM; in test [1] (setting [5]), 0.138 µM.
As for `CO[C@@]1(CN2CCN([C@H]3CCOC3)CC2)/C=C/C[C@H](C)[C@@H](C)S(=O)(=O)NC(=O)c2ccc3c(c2)N(C[C@@H]2CC[C@H]21)C[C@@]1(CCCc2cc(Cl)ccc21)CO3` (stereo in doubt) [Example 275], the IC50 in test [3] (read-out: Mcl-1 HTRF IC50) worked out at 0.176 nM; in test [1] (setting [4]), 0.082 µM.
For the compound `COCCO[C@@]1(CN2CCN3CCCC[C@@H]3C2)/C=C/C[C@H](C)[C@@H](C)S(=O)(=O)NC(=O)c2ccc3c(c2)N(C[C@@H]2CC[C@H]21)C[C@@]1(CCCc2cc(Cl)ccc21)CO3` [Example 151, (1S,3′R,6′R,7′S,8′E,11′S,12′R)-6-chloro-7′-(2-methoxyethoxy)-11′,12′-dimethyl-7′-((9aR)-octahydro-2H-pyrido[1,2-a]pyrazin-2-ylmethyl)-3,4-dihydro-2H,15′H-spiro[naphthalene-1,22′-[20]oxa[13]thia[1,14]diazatetracyclo[14.7.2.0˜3,6˜.0˜19,24˜]pentacosa[8,16,18,24]tetraen]-15′-one 13′,13′-dioxide], the IC50 in test [3] (read-out: Mcl-1 HTRF IC50) worked out at 0.843 nM; in test [1] (setting [4]), 0.462 µM.
On to `CCO[C@]1(CN2CCN3CCOC[C@@H]3C2)CCC[C@H](C)[C@@H](CCOC)S(=O)(=O)NC(=O)c2ccc3c(c2)N(C[C@@H]2CC[C@H]21)C[C@@]1(CCCc2ccccc21)CO3` [Example 517, (1S,3′R,6′R,7′R,11′S,12′R)-7′-ethoxy-7′-((9aS)-hexahydropyrazino[2,1-c][1,4]oxazin-8(1H)-ylmethyl)-12′-(2-methoxyethyl)-11′-methyl-3,4-dihydro-2H,15′H-spiro[naphthalene-1,22′-[20]oxa[13]thia[1,14]diazatetracyclo[14.7.2.0˜3,6˜.0˜19,24˜]pentacosa[16,18,24]trien]-15′-one 13′,13′-dioxide], for which the 50% inhibitory concentration (IC50) was 0.259 nM in test [3] (read-out: Mcl-1 HTRF IC50) and 0.252 µM in test [1] (setting [4]).
With `CO[C@@]1(C#CCCN2CCS(=O)(=O)CC2)/C=C/C[C@H](C)[C@@H](C)S(=O)(=O)NC(=O)c2ccc3c(c2)N(C[C@@H]2CC[C@H]21)C[C@@]1(CCCc2cc(Cl)ccc21)CO3` [Example 100456, (1S,3′R,6′R,7′S,8′E,11′S,12′R)-6-chloro-7′-(4-(1,1-dioxido-4-thiomorpholinyl)-1-butyn-1-yl)-7′-methoxy-11′,12′-dimethyl-3,4-dihydro-2H,15′H-spiro[naphthalene-1,22′-[20]oxa[13]thia[1,14]diazatetracyclo [14.7.2.0~3,6~.0~19,24~]pentacosa[8,16,18,24]tetraen]-15′-one 13′,13′-dioxide], the IC50 in test [3] (read-out: Mel-1 HTRF IC50) was determined as 0.565 nM; in test [1] (setting [5]) it was 1.23 µM.
In the case of `COCC[C@@H]1[C@@H](C)C/C=C/[C@](CN2CCN3CCOC[C@@H]3C2)(OC)[C@@H]2CC[C@H]2CN2C[C@@]3(CCCc4cc(Cl)ccc43)COc3ccc(nc32)C(=O)NS1(=O)=O` [Example 20, (1S,3′R,6′R,7′S,8′E,11′S,12′R)-6-chloro-7′-((9aS)-hexahydropyrazino[2,1-c][1,4]oxazin-8(1H)-ylmethyl)-7′-methoxy-12′-(2-methoxyethyl)-11′-methyl-3,4-dihydro-2H,15′H-spiro[naphthalene-1,22′-[20]oxa[13]thia[1,14,25]triazatetracyclo[14.7.2.0˜3,6˜.0˜19,24˜]pentacosa[8,16,18,24]tetraen]-15′-one 13′,13′-dioxide], the IC50 in test [3] (read-out: Mcl-1 HTRF IC50) was 0.082 nM; in test [1] (setting [4]), 0.022 µM.
On to `CO[C@@]1(CN2CCN3CCCC[C@@H]3C2)/C=C/C[C@H](C)[C@@H](Cc2ccccc2)S(=O)(=O)NC(=O)c2ccc3c(c2)N(C[C@@H]2CC[C@H]21)C[C@@]1(CCCc2cc(Cl)ccc21)CO3` (single isomer, unassigned) [Example 104], for which the results for the half-maximal inhibitory concentration (IC50) in test [3] (read-out: Mcl-1 HTRF IC50) and in test [1] (setting [4]) were 1.12 nM and 0.782 µM, respectively.
For `CO[C@]1(CN2CCN3CCCC[C@@H]3C2)/C=C/C[C@H](C)[C@@H](CCO[Si](c2ccccc2)(c2ccccc2)C(C)(C)C)S(=O)(=O)NC(=O)c2ccc3c(c2)N(C[C@@H]2CC[C@H]21)C[C@@]1(CCCc2cc(Cl)ccc21)CO3` [Example 359, (1S,3′R,6′R,7′R,8′E,11′S,12′R)-6-chloro-7′-methoxy-11′-methyl-12′-(2-(((2-methyl-2-propanyl)(diphenyl)silyl)oxy)ethyl)-7′-((9aR)-octahydro-2H-pyrido[1,2-a]pyrazin-2-ylmethyl)-3,4-dihydro-2H,15′H-spiro[naphthalene-1,22′-[20]oxa[13]thia[1,14]diazatetracyclo[14.7.2.0˜3,6˜.0˜19,24˜]pentacosa[8,16,18,24]tetraen]-15′-one 13′,13′-dioxide], in that order: 2.08 nM and more than 33.3 µM.
As for `CO[C@@]1(CC(=O)NC[C@@H](O)C(F)(F)F)/C=C/C[C@H](C)[C@@H](C)S(=O)(=O)NC(=O)c2ccc3c(c2)N(C[C@@H]2CC[C@H]21)C[C@@]1(CCCc2cc(Cl)ccc21)CO3.CO[C@@]1(CC(=O)NC[C@H](O)C(F)(F)F)/C=C/C[C@H](C)[C@@H](C)S(=O)(=O)NC(=O)c2ccc3c(c2)N(C[C@@H]2CC[C@H]21)C[C@@]1(CCCc2cc(Cl)ccc21)CO3` [Example 100563], the half-inhibitory concentration (IC50) in test [3] (read-out: Mel-1 HTRF IC50) stood at 0.065 nM; in test [1] (setting [5]), 0.51 µM.
In the case of `CO[C@]1(CN2CCN3CCN(C(C)=O)C[C@@H]3C2)/C=C/C[C@H](C)[C@@H](C)S(=O)(=O)NC(=O)c2ccc3c(c2)N(C[C@@H]2CC[C@H]21)C[C@@]1(CCCc2cc(Cl)ccc21)CO3` (stereo in doubt) [Example 218], the figures for the IC50 in test [3] (read-out: Mcl-1 HTRF IC50) and in test [1] (setting [4]) were 0.142 nM and 0.092 µM, respectively.
As to `CO[C@]1(CN2CCN3CCCCC[C@@H]3C2)/C=C/C[C@H](C)[C@@H](C)S(=O)(=O)NC(=O)c2ccc3c(c2)N(C[C@@H]2CC[C@H]21)C[C@@]1(CCCc2cc(Cl)ccc21)CO3` (stereo in doubt) [Example 87], the IC50 in test [3] (read-out: Mcl-1 HTRF IC50) was found to be 0.127 nM; in test [1] (setting [4]) it was 0.141 µM.
